According to US9243281B2, “Neuroprotective chemicals and methods for identifying and using same” (Board of Regents of The University of Texas System, priority 2013, dated 2016):

Assays:
[1] = tested on: NAD levels in doxorubicin-treated U2OS cells; experiment: NAD rebound assay in doxorubicin-treated cells (NAD/NADH Glo); type: cell-based; conditions: 0.5 μM doxorubicin 45 h
Protocol: FIG. 12. Five-point dose response curves (DRC) of all tested compounds in NAD rebound assay. […] Cellular NAD abundance was determined by NAD/NADH Glo assay kit.
Each chemical variant of P7C3 was co-incubated with doxorubicin on cultured U2OS cells at five doses (0.03 uM, 0.1 uM, 0.3 uM, 1 uM and 3 uM). After 45 hrs incubation, cells were assayed for intracellular levels of NAD (FIG. 12).
Assay was performed following the manufacturer's protocol. NAD/NADH-Glo reagent contains the NAD Cycling Enzyme that converts NAD+ to NADH. In the presence of NADH, the enzyme reductase reduces a proluciferin reductase substrate to form luciferin. Cells were grown in 96- or 384-well plates. 50 μl or 15 μl of NAD/NADH-Glo™ Detection Reagent were added to each well. The resulting luminescence signals were measured by Tecan plate reader or EnVison multimode plate reader (Perkin Elmer).

[2] = tested on: U2OS cells; experiment: cell survival assay with seven other toxins; type: cell-based; conditions: 5 μM P7C3-A20 2 h prior to toxins for 72 h
Protocol: FIG. 8. P7C3A20 protects U2OS cells from doxorubicin-mediated toxicity. U2OS cells were treated with 5 μM P7C3-A20 for 2 h prior to incubation with the indicated concentrations of eight toxins for 72 h.
(§1) Progress on studies aimed towards resolving the mode of action of P7C3 has been hampered by the fact that we have been limited to studies of drug action in living animals. Our standard assay of neurogenesis requires, under optimal conditions, a one month turn-around from the synthesis of a new derivative to a score for its neuroprotective activity. In efforts to break this logjam, we tested whether P7C3 might have cell-protective activity to any of eight generic toxins.
Cell survival assay was performed in 96-well plates using CellTiter-Glo Luminescent Cell Viability Assay kit (Promega) that measures cellular ATP content. The CellTiter-Glo reagent was diluted by adding 2 volumes of PBS containing 1% Triton X-100. 50 μl of diluted reagent was directly added to 100 μl of cell culture medium per well. […] Luminescence was recorded by Tecan […]luor Plus reader (Tecan). Cell survival was presented as the percentage of viable cells compared with untreated control, and mean±SD was calculated from duplicates. The dox:tox assay of P7C3 analogs was carried out in the HTS Core (University of Texas Southwestern Medical Center) using the EnVison multimode plate reader (Perkin Elmer).

[3] = tested on: NAD in U2OS cells; experiment: intracellular NAD abundance by LC-MS/MS; type: cell-based; conditions: U2OS cells exposed to sub-lethal doxorubicin
Protocol: FIGS. 5A-5C. Active variants of P7C3 compensate NAD exhaustion induced by doxorubicin. (FIG. 5A) U2OS cells were treated with the indicated concentration of P7C3-A20. Cells were harvested and NAD metabolites were measured by LC-MS/MS. Abundance of NAD was normalized relative to total metabolites (Experimental Procedures). The data are represented as the mean±SD of experimental duplicates. […] Cells were grown in 96-well plates and treated with the indicated concentrations of P7C3-A20, P7C3-S243, P7C3-S6 or P7C3-S117 together with 0.5 μM doxorubicin for 45 h. Cellular NAD abundance was determined by NAD/NADH Glo assay kit. […] The activities in both assays are represented by (Sinf−S0)/AC50 in dose response curves of test compounds.
Doxorubicin is a DNA-damaging toxin known to activate the poly ADP-ribose polymerase (PARP) enzyme as a central feature of DNA repair (Pacher et al., 2002) (Munoz-Gamez et al., 2009). […] U2OS cells exposed to sub-lethal levels of doxorubicin were lysed in methanol, cleared by centrifugation and subjected to metabolite analysis by mass spectrometry. These methods allow for the simultaneous, quantitative analysis of hundreds of intracellular metabolites (Tu et al., 2007) (Wang et al., 2009). […] The mass spectrometry methods used to quantitate metabolite levels measured NAD relative to hundreds of other intracellular metabolites. […]

[4] = tested on: hippocampal neurogenesis (Dentate Gyrus); experiment: in vivo neurogenesis assay (BrdU+ cells in dentate gyrus); parameters: species or system mice; conditions: living mice; vehicle (DMSO) 7.3
In short: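 Pools of ten compounds infused into the left ventricle of two adult mice per pool via cannula and mini-pump over one week, aimed at mid-nanomolar levels. Daily BrdU co-injected; brain sections stained for BrdU to count new dentate gyrus cells.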

[5] = tested on: U2OS cells; experiment: western blotting of caspase-3 activation and γ-H2AX after doxorubicin; type: cell-based
Protocol: FIGS. 9A-9B. […] (FIG. 9A) U2OS cells were treated with increasing concentrations of P7C3-A20 for 2 h prior to exposure to 0.5 μM doxorubicin for another 2 h. Cells were harvested and subjected to western blotting with the DNA damage marker, γ-H2AX. Actin was served as loading control. (FIG. 9B) U2OS cells were treated with P7C3-A20 and doxorubicin for the indicated time. Caspase-3 activation was determined by western blotting. Caspase-3 cleavage was observed when treated with doxorubicin alone at 60 h, but was prevented in the presence of P7C3-A20.
as §1

COc1cccc(NCC(F)Cn2c3ccc(Br)cc3c3cc(Br)ccc32)c1 (stereo not drawn) [S10]
rebound of NAD levels (NAD/NADH-Glo kit) [1]: rebound of NAD levels | protection from seven other toxins [2]: no evidence of drug-mediated protection | NAD level relative to total metabolites [3]: dose-dependent replenishment of NAD | Neurogenesis # BrdU+ Cells (X10E06)/mm3 Dentate Gyrus [4]: 19.0 (X10E06)/mm3 | DNA damage response (phosphorylation of H2AX) ([5]; 0.5 μM doxorubicin): not DNA damage response | doxorubicin-induced apoptosis (caspase-3 activation) ([5]; co-administration with doxorubicin): blocked doxorubicin-induced apoptosis
